In patent US9345716B2, “Protein free surfactant composition for pulmonary diseases and a process for preparing the same” (INDIAN INSTITUTE OF TECHNOLOGY, BOMBAY, priority 2010, dated 2016):
“And” between values parts separate entries of the source, which are not always exact repeats. Equal values may be shown once.

What was measured:
[1] = Atomic force microscopy of surfactant films in presence of albumin; assay type: physicochemical; conditions: in the presence of albumin
Excerpt: The invented surfactant of DPPC: eugenol 5:3 forms closely packed structures having nanodomains in the presence of albumin. The DPPC: eugenol surfactant in the absence and presence of albumin was compared with that of DPPC alone in the absence and presence of albumin, using atomic force microscopy (AFM). AFM images of DPPC in the presence of albumin and DPPC: eugenol 5:3 in the presence of albumin are depicted in FIGS. 11 and 13 respectively and the roughness of the structures are depicted in FIGS. 12 and 14. […] The surface roughness of DPPC in the presence of albumin is depicted in FIG. 12. It confirms large aggregates with roughness of 47.47 nm. On the other hand, in the case of DPPC: eugenol in the presence of albumin, the surface roughness is only 8.9 nm as depicted in FIG. 14. The formation of nanodomains of 80-90 nm with surface roughness of 8.9 nm allows a closely packed organization which accounts for the improved surface activity of the surfactant in the presence of albumin.

[2] = Laurdan fluorescence ratio (lamellar/non-lamellar phase state); assay type: physicochemical; conditions: for Ratio of Laurdan fluorescence 360/390: 360 and 390 nm; for Ratio of Laurdan fluorescence 360/490: 360 and 490 nm
Excerpt: (§1) Laurdan (6-dodecanoyl-2-dimethylaminonaphthalene) is a fluorescent membrane probe that has the advantage of displaying spectral sensitivity to the phospholipids phase state.
as §1

[3] = Airway patency in a capillary surfactometer; conditions: 37 C, graded concentrations of albumin
Experimental: This is evaluated in a capillary surfactometer at 37 C at a concentration of 1 mg/ml of the surfactant in the presence of 0.5 mg/ml of albumin.
FIG. 2 compares the airway patency of DPPC:Eugenol 5:3 (present invention) at a concentration of 1 mg/ml with that of DPPC:clove oil 5:3 1 mg/ml in the absence and presence of 0.5 mg/ml of albumin in a capillary surfactometer at 37 C.

[4] = Surfactant adsorption to air-liquid interface in a langmuir trough; assay type: physicochemical
Experimental: Salbutamol or dexamethasone were added in a ratio of 1 part of surfactant to 0.1 parts of drug while gentamycin was added in a ratio of 1 part of surfactant to 0.2 parts of drug by weight.

[5] = Differential scanning calorimetry: energy required by liposomes to reach the interface; assay type: physicochemical; conditions: liposomes 1 mg/ml
Experimental: Differential scanning calorimetry (DSC) was also used to study the interaction of bioactive compounds with model lipid bilayers such as DPPC. The experiments were performed at temperature ranging from 35° C. to 115° C. The rate of heating was 3° C./min and the system was allowed to cool to about 35° C. before the next experiment. The samples studied in the order of DSC results were,
Differential scanning calorimetry (DSC) was used to study the interaction of bioactive compounds with model lipid bilayers such as DPPC. The experiments were performed at temperature ranging from 35° C. to 115° C. The rate of heating was 3° C./min and the system was allowed to cool to about 35° C. before the next experiment. […] The lower the energy required by the nanovesicles, better is the rate of adsorption. […] On addition of HCl (as an acid inhibitor), there was an increase in the energy (1743 J/g) of the DPPC liposomes which affected the adsorption (59.89±2.22mN/m) of these acid-treated liposomes. The energy barrier prevented the rapid entry of these liposomes at the interface thereby affecting adsorption.

Row | Structure (SMILES) | Domain size (AFM) [1] | Surface roughness (AFM) [1] [nm] | Ratio of Laurdan fluorescence 360/390 ([2]; in the presence of albumin) | Ratio of Laurdan fluorescence 360/390 ([2]; no albumin) | Ratio of Laurdan fluorescence 360/490 ([2]; in the presence of albumin) | Ratio of Laurdan fluorescence 360/490 ([2]; no albumin) | Airway patency in presence of graded amounts of albumin [3] [%] | Adsorption (rate of adsorption, surface tension) ([4]; acid-treated, HCl 3.1×10^−1 moles/dm^3) [mN/m] | Adsorption (rate of adsorption, surface tension) ([4]; acid-untreated, liposomes 1 mg/ml) [mN/m] | Energy required for the liposomes to reach the interface (DSC) ([5]; HCl 3.1×10^−1 moles/dm^3) [J/g] | Energy required for the liposomes to reach the interface (DSC) ([5]; acid-untreated) [J/g]
1 | CCCCCCCCCCCCCCCC(=O)OC[C@H](COP(=O)([O-])OCC[N+](C)(C)C)OC(=O)CCCCCCCCCCCCCCC [DPPC, dipalmitoylphosphatidylcholine] | 540-550 nm | 47.47 | 1.98 and 1.99 | 2.6 and 2.615 | 1.21 and 1.215 | 2.41 | 0 | 59.89±2.22 | 44.66±1.71 | 1743 | 1325
2 | C=CCc1ccc(O)c(OC)c1 [eugenol] | – | – | – | – | – | – | 0 | – | – | – | –
